Patent US12319913B2, “5-halouracil-modified microRNAs and their use in the treatment of cancer” (The Research Foundation for The State University of New York, priority 2018, dated 2025)
[5FU] = 5-fluorouracil base replacing uracil

Assays:
[1] = system: acute lymphocytic leukemia cell line (REH); test: Cell proliferation, REH; format: cell-based, human; settings: compared to negative controls
Description: (§1) For transfections, 1×10^5 cells were plated in six-well plates and transfected with 100 nM of control non-specific miRNA (Thermo Fischer), a modified microRNA, or exogenous native microRNA after 24 hours using Oligofectamine (Thermo Fischer) following the manufacturer's protocols. For reagent free transfection, cells were plated in 6 well plates at (1×10^5) cells per well. Twenty-four hours later 100 pmol miRNA (Control, miR-15a, Mimic-1) were diluted in Optimem (Thermo Fischer) and added to the plate. Media was changed after 24 hours. Media was supplemented with 10% fetal bovine serum (Thermo Fischer). Briefly, cells were cultured in growth media (DMEM/F12 supplemented with B27, 10 ng/mL bFGF, and 20 ng/mL EGF (Life Technologies) in ultra-low attachment flasks) for up to 6 days. The spheroid cells were maintained by collection through gentle centrifugation, dissociation to single cells and replating.
(§2) Cell proliferation assay: Twenty-four hours after transfection, cells were seeded in 96-well plates at a density of 2000 cells per well. The cell proliferation assay was performed on days 1 to 5 by incubating 10 μl WST-1 (Roche Applied Science, Mannheim, Germany) in the culture medium for 1 h and reading the absorbance at 450 and 630 nm. The cell proliferation rate was calculated by subtracting the […]. Experiments for the cell proliferation assay were performed at least three times. The O.D. was calculated by subtracting the absorbance at 630 nm from that at 450 nm. Proliferation experiments were performed three times.

A549 lung cancer cells = test: Cell proliferation, A549; format: cell-based, human; settings: A549, compared to negative controls
Description: as §1, §2

[2] = system: AsPC-1 pancreatic cancer cells; test: Cell proliferation, AsPC-1; format: cell-based, human; settings: APSC-1; 50 nM, 25 nM, 12.5 nM, 6.25 nM, and 3.125 nM
Description: as §1, with “For transfections, 1×10^5 cells were plated in six-well plates and transfected with 100 nM of control non-specific miRNA (Thermo Fischer), a modified microRNA, or exogenous native microRNA after 24 hours using Oligofectamine (Thermo Fischer) following the manufacturer's protocols.” left out
as §2

[3] = system: SKBR3 breast cancer cells; test: Cell proliferation, SKBR3; format: cell-based, human; settings: SKBR3, compared to negative controls
Description: as §1, §2

[4] = system: acute lymphocytic leukemia cell line (REH); test: Cell proliferation, REH; format: cell-based, human; settings: 50 nM, 25 nM, 12.5 nM, 6.25 nM, and 3.125 nM
AGS stomach cancer cells = test: Cell proliferation, AGS; format: cell-based, human; settings: compared to negative controls
Description: as §1, §2

[5] = system: Hs766T pancreatic cancer cells; test: Cell proliferation, Hs766T; format: cell-based, human; settings: compared to negative controls
Description: as §1, §2

[6] = system: Panc-1 pancreatic cancer cells; test: Cell proliferation, Panc-1; format: cell-based, human; settings: PANC-1; 50 nM, 25 nM, 12.5 nM, 6.25 nM, and 3.125 nM
Description: as §1, with “For transfections, 1×10^5 cells were plated in six-well plates and transfected with 100 nM of control non-specific miRNA (Thermo Fischer), a modified microRNA, or exogenous native microRNA after 24 hours using Oligofectamine (Thermo Fischer) following the manufacturer's protocols.” left out
as §2

[7] = system: HCT116 colon cancer cells; test: WST-1 cell proliferation assay, HCT116; format: cell-based, human; settings: HCT116, in words, vs controls
Description: as §1, with “1×10^5 cells were plated in six-well plates and transfected with 100 nM of control non-specific miRNA (Thermo Fischer), a modified microRNA, or exogenous native microRNA after 24 hours using Oligofectamine” left out
as §2

[8] = system: HCT116 derived colon cancer stem cells; format: cell-based; settings: lethal dose of 5-FU at 100 μM
Description: as §1
miR-129 mimics eliminated chemotherapy resistant colon cancer stem cells. To determine the impact of certain exemplary modified microRNAs of the present disclosure (i.e., miR-129 mimics) on 5-FU resistant colon cancer stem cells, HCT116 derived colon cancer stem cells were treated with various concentrations of Mimic-1 or 5-FU.

[9] = system: MDA-MB-231 triple negative breast cancer cells; test: MTT cell proliferation, MDA-MB-231, with or without oligofectamine; format: cell-based, human; settings: for cell proliferation without delivery vehicle (no oligofectamine): MDA-MB-231, MTT assay
Description: as §1
Furthermore, to test whether or not the modified microRNAs of the present disclosure can be delivered directly to cells and taken up by the cancer cells without the use of transfer agents or vehicles (i.e., oligofectamine), MDA-MB-231 triple negative breast cancer cells were transfected with miR-NC (negative control), exogenous unmodified miR-200b or miR-489, 5-FU-miR-200b or modified miR-489 by using oligofectamine or without delivery vehicle. As shown in FIGS. 17A-17B and 20A, the effects of expression of the exemplary modified miRs tested on breast cancer cell proliferation were monitored by MTT assay for 6 days upon transfection or incubation.

Compound | leukemia cancer cell proliferation [1] | lung cancer cell proliferation (A549 lung cancer cells) | cell proliferation, dose dependence [2] | breast cancer cell proliferation [3] | leukemia cancer cell proliferation, dose dependence [4] | gastric cancer cell proliferation (AGS stomach cancer cells) | pancreatic cancer cell proliferation [5] | cell proliferation, dose dependence [6] | inhibition of colon cancer cell proliferation [7] | effect on tumor stem cell viability [8] | cell proliferation without delivery vehicle (no oligofectamine) [9] | cell proliferation in the presence of oligofectamine ([9]; MDA-MB-231, MTT assay for 6 days, vs miR-NC) | cell proliferation without delivery vehicle (no oligofectamine) ([9]; listed as exogenous miR-200b)
U^FAAU^FACU^FGCCGGGU^FAAU^FGAU^FGGA [modified miR-200c] | inhibited | inhibited | inhibited in a dose dependent manner | inhibited | inhibited in a dose dependent manner | inhibited | inhibited | inhibited in a dose dependent manner |  |  |  |  | 
CAGU^FGGU^FU^FU^FU^FACCCU^FAU^FGGU^F AG (CAGUGGUUUUACCCUAUGGUAG; RNA, [5FU] at 4, 7, 8, 9, 10, 15, 17, 20, backbone not given here) [modified miR-140 [SEQ ID NO. 16]] | inhibited | inhibited | inhibited in a dose dependent manner | inhibited | inhibited in a dose dependent manner | inhibited | inhibited | inhibited in a dose dependent manner |  |  |  |  | 
CAGU^FGGUUUUACCCU^FAUGGU^FAG (CAGUGGUUUUACCCUAUGGUAG; RNA, [5FU] at 4, 15, 20, backbone not given here) [modified miR-140 [SEQ ID NO. 9], miR-140 in which certain (3) U bases are replaced by 5-fluorouracil] |  |  |  |  |  |  |  |  | increased ability to inhibit colorectal cancer cell proliferation |  |  |  | 
U^FAU^FU^FCAGGAAGGU^FGU^FU^FACU^FU^FAA (UAUUCAGGAAGGUGUUACUUAA; RNA, [5FU] at 1, 3, 4, 13, 15, 16, 19, 20, backbone not given here) [modified miR-506, miR-506 in which all (8) U bases are replaced by 5-fluorouracil] | inhibited | inhibited | inhibited in a dose dependent manner | inhibited | inhibited in a dose dependent manner | inhibited | inhibited | inhibited in a dose dependent manner |  |  |  |  | 
AU^FCCU^FU^FGCUAU^FCU^FGGGU^FGCU^FA (AUCCUUGCUAUCUGGGUGCUA; RNA, [5FU] at 2, 5, 6, 11, 13, 17, 20, backbone not given here) [modified miR-502] | inhibited | inhibited | inhibited in a dose dependent manner | inhibited | inhibited in a dose dependent manner | inhibited | inhibited | inhibited in a dose dependent manner |  |  |  |  | 
U^FGU^FAACAGCAACU^FCCAU^FGU^FGGA (UGUAACAGCAACUCCAUGUGGA; RNA, [5FU] at 1, 3, 13, 17, 19, backbone not given here) [modified miR-194] | inhibited | inhibited | inhibited in a dose dependent manner | inhibited | inhibited in a dose dependent manner | inhibited | inhibited | inhibited in a dose dependent manner |  |  |  |  | 
U^FAACACU^FGU^FCU^FGGU^FAACGAU^FGU^F (UAACACUGUCUGGUAACGAUGU; U replaced by 5-fluorouracil, chemistry not fully specified) [modified miR-200a, miR-200a in which all (7) U bases are replaced by 5-fluorouracil] | inhibited | inhibited | inhibited in a dose dependent manner | inhibited | inhibited in a dose dependent manner | inhibited | inhibited | inhibited in a dose dependent manner |  |  |  |  | 
CU^FGACCU^FAU^FGAAU^FU^FGACAGCC (CUGACCUAUGAAUUGACAGCC; RNA, [5FU] at 2, 7, 9, 13, 14, backbone not given here) [modified miR-192] | inhibited | inhibited | inhibited in a dose dependent manner | inhibited | inhibited in a dose dependent manner | inhibited | inhibited | inhibited in a dose dependent manner | increased ability to inhibit colorectal cancer cell proliferation |  |  |  | 
O=c1[nH]cc(F)c(=O)[nH]1 [5-FU, 5-fluoro-1H-pyrimidine-2,4-dione, reference compound] |  |  |  |  |  |  |  |  |  | minimal effect |  |  | 
U^FGGCAGU^FGU^FCU^FU^FAGCU^FGGU^FU^FGU^F (UGGCAGUGUCUUAGCUGGUUGU; all U replaced by 5-fluorouracil, chemistry not fully specified) [modified miR-34, miR-34 in which all (9) U bases are replaced by 5-fluorouracil] | inhibited | inhibited | inhibited in a dose dependent manner | inhibited | inhibited in a dose dependent manner | inhibited | inhibited | inhibited in a dose dependent manner |  |  |  |  | 
UAAUACUGCCUGGUAAUGAUGA (chemistry not fully specified; listed as Homo sapiens) [native miR-200b, 21] |  |  |  |  |  |  |  |  |  |  | had no effects on proliferation | reduced the rate of cell proliferation | did not inhibit cell growth
